Results published in US7122657B2, “UDP-glucose aglycon-glucosytransferase” (priority 1999, dated 2006).

Tests used:
[1] = molecular target: T1, recombinant sbHMNGT (UDP-glucose:p-hydroxymandelonitrile-glucosyltransferase) (Sorghum bicolor, UniProt Q9SBL1); assay: Substrate specificity of recombinant sbHMNGT (TLC, 14C-UDP-glucose); format: biochemical; design: key to ACTIVITY Recombinant sbHMNGT (radiolabelled glucoside product): ▪: indicate that a radiolabelled product was visualised after incubation with the respective aglycone substrate; □: indicate that no radiolablled products could be detected under the experimental conditions employed; details: for ACTIVITY Recombinant sbHMNGT (radiolabelled glucoside product): 1.25 mM aglycone, 100 ng recombinant sbHMNGT, 20 min at 30° C., TLC
T1 construct: are used to amplify a 1500 bp full-length sbHMNGT insert by PCR; made in house; host or cells: E. coli JM109, vector pSP19g10L
Experimental: (§1) Generally a 20 μl reaction mixture including • 100 mM Tris HCl (pH 7.9), • 1–5 μM ^14C-UDP-glucose (11.0 GBq mmol^−1, Amersham LIFE SCIENCE), • 0–300 μM UDP-glucose, • 0–20 mM p-hydroxymandelonitrile (dissolved in water, freshly prepared), • 25 mM γ-gluconolactone, • 0–1 mg BSA and • 0.5–10 μl of protein preparation, is incubated at 30° C. between 2 minutes and 2 hours. Thereafter the reaction is terminated by the addition of 1/10 of the reaction volume of 10% acetic acid. The same assay conditions are used to determine the glucosylation of mandelonitrile, benzoic acid, benzylalcohol, geraniol and a number of other aglycons.
To determine the substrate specificity of recombinant sbHMNGT incubation lasts for 20 min at 30° C. and the general protocol above is adapted to include • 1.25 mM aglycone (dissolved in ethanol except for flavonoids which are dissolved in ethylene glycol monoether), • 1.25 μM ^14C-UDP-glucose, • 12.5 μM UDP-glucose, • 100 ng recombinant sbHMNGT, and • 4 μg BSA.
(§2) For TLC analysis the reaction mixture is applied to Silica Gel 60 F254 plates (Merck), dried and eluted in a solvent containing ethyl acetate:acetone:dichloromethane:methanol:[…] (40:30:12:10:8, v/v). Plates are dried for one hour at room temperature and exposed to storage phosphorlmaging plates (Molecular Dynamics) prior to scanning on a Storm 860 Phosphorimager (Molecular Dynamics).
(§3) Substrate Specificity of Recombinant sbHMNGT Compared to Desalted Crude Etiolated Sorghum Seedling Extract
(§4) Glucosyltransterase activity was determined by TLC using ^14C-UDP-glucose. Filled boxes in Table 1 below (▪) indicate that a radiolabelled product was visualised after incubation with the respective aglycone substrate. Empty boxes (□) indicate that no radiolablled products could be detected under the experimental conditions employed. Figures in brackets indicate the relative Vmax for each aglycon with calculated standard deviations.

[2] = system: glucosyltransferase activity of desalted crude etiolated Sorghum seedling extract; assay: Substrate specificity of desalted crude etiolated Sorghum seedling extract (TLC, 14C-UDP-glucose); format: biochemical, Sorghum bicolor; design: key: ▪: indicate that a radiolabelled product was visualised after incubation with the respective aglycone substrate; □: indicate that no radiolablled products could be detected under the experimental conditions employed; details: aglycone substrate
Experimental: as §1, §2, §3, §4

sbHMNGT [3] = molecular target: T2, sbHMNGT (Sorghum bicolor, UniProt Q9SBL1); assay: Quantitative determination of the activity of recombinant sbHMNGT (Vmax); format: biochemical; design: are used to amplify a 1500 bp full-length sbHMNGT insert by PCR; made in house; host or cells: E. coli JM109, vector pSP19g10L; details: for relative Vmax with calculated standard deviations: relative to p-hydroxymandelonitrile, 1, 5 or 10 mM aglycone, 4 minutes at 30° C.
Experimental: as §1
Quantitative determination of the activity of recombinant sbHMNGT is carried out using 4 minutes incubation at 30° C. Analyses are carried out as for the determination of substrate specificity except that the reaction mixtures are composed as folows: • 1, 5 or 10 mM aglycone, • 5 μM ^14C-UDP-glucose, • 0.2 mM UDP-glucose, • 200 ng recombinant sbHMNGT, and • 24 μg BSA.
as §4

sbHMNGT [4] = molecular target: T2, sbHMNGT; assay: sbHMNGT activity assay during purification (LSC); format: biochemical; design: from tissue; host or cells: etiolated Sorghum bicolor seedling shoots; ammonium sulphate, Q-sepharose and Reactive Yellow 3 fractions; details: native sbHMNGT
Experimental: as §1
For analysis by liquid scintillation counting (LSC) reaction mixtures are extracted with 400 μl of ethyl acetate to separate glucosides from unincorporated ^14C-UDP-glucose. 2 ml of Ecoscint A (National Diagnostics, New Jersey, USA) are added to 250 μl of each ethyl acetate extract and analyzed using a Win Spectral 1414 (Wallac) liquid scintillation counter. Mandelonitrile is used as substrate to assay fractions generated by liquid chromatography.
Except where indicated all steps are carried out at 4° C. […] Furthermore, the absence of a hydroxyl group at the para-position of the benzene ring rules out the possibility of p-glucosyloxymandelonitrile synthesis, which would be indistinguishable from dhurrin using the LSC assay.

T2 sequence (Q9SBL1 whole entry): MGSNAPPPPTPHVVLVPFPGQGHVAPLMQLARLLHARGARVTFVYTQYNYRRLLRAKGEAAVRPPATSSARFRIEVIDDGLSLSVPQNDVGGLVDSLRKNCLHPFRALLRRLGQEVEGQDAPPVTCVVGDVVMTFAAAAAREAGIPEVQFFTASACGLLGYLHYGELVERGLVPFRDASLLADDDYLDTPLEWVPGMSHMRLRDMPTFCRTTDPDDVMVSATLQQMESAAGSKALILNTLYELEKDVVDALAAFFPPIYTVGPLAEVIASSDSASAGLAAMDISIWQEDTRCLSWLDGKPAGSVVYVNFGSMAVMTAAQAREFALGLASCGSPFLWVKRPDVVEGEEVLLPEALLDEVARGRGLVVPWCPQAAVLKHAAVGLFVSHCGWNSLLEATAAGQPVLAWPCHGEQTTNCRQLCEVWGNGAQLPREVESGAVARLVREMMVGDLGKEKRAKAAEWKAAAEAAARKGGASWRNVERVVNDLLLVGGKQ
T1 sequence (Q9SBL1 whole entry): as above

| SMILES | ACTIVITY Recombinant sbHMNGT (radiolabelled glucoside product) [1] | ACTIVITY Crude Sorghum extract (radiolabelled glucoside product) [2] | ability of sbHMNGT to glucosylate the aglycon [1] | rate of glucosylation compared with the cyanohydrins (sbHMNGT [3]) | relative Vmax with calculated standard deviations (sbHMNGT [3]; recombinant sbHMNGT) | substrate quality compared with p-hydroxymandelonitrile (sbHMNGT [4]) | Vmax (sbHMNGT [3]; recombinant sbHMNGT) |
| --- | --- | --- | --- | --- | --- | --- | --- |
| CCCCCCO [1-hexanol] | ▪ | ▪ | – | – | – | – | – |
| O=C(O)C=Cc1ccccc1O [2-hydroxy cinnamic acid] | □ | ▪ | – | – | – | – | – |
| COc1cccc(CO)c1O [2-hydroxy-3-methoxybenzlalcohol] | ▪ | ▪ | glucosylate | – | – | – | – |
| CCCC(C)=CCO [3-methyl-2-hexen-1-ol] | ▪ | ▪ | – | – | – | – | – |
| CCC=C(C)CCO [3-methyl-3-hexen-1-ol] | ▪ | ▪ | – | – | – | – | – |
| CC(C)(O)C#N [acetone cyanohydrin] | □ | □ | – | – | – | – | – |
| O=c1cc(-c2ccc(O)cc2)oc2cc(O)cc(O)c12 [apigenin] | □ | ▪ | – | – | – | – | – |
| O=C(O)c1ccccc1 [benzoic acid] | ▪ | ▪ | glucosylate | lower than those observed for the cyanohydrins | (4.2 ± 0.8%) | – | – |
| OCc1ccccc1 [benzyl alcohol] | ▪ | ▪ | glucosylate | lower than those observed for the cyanohydrins | (13.1 ± 2.1%) | – | – |
| COc1ccc(-c2coc3cc(O)cc(O)c3c2=O)cc1 [biochanin A] | □ | ▪ | – | – | – | – | – |
| O=C(O)/C=C/c1ccc(O)c(O)c1 [caffeic acid] | □ | ▪ | – | – | – | – | – |
| CC/C=C\CCO [cis-3-hexen-1-ol] | ▪ | ▪ | – | – | – | – | – |
| O=C(O)c1cc(O)ccc1O [gentisic acid] | □ | □ | – | – | – | – | – |
| CC(C)=CCC/C(C)=C/CO [geraniol] | ▪ | ▪ | glucosylate | lower than those observed for the cyanohydrins | (11.0 ± 0.5%) | – | – |
| Oc1ccc(O)cc1 [hydroquinone] | □ | ▪ | – | – | – | – | – |
| N#CC(O)c1ccccc1 (centres unmarked) [mandelonitrile] | ▪ | ▪ | – | – | (77.8 ± 8.6%) | equally good substrate | – |

| SMILES | ACTIVITY Recombinant sbHMNGT (radiolabelled glucoside product) [1] | ACTIVITY Crude Sorghum extract (radiolabelled glucoside product) [2] | ability of sbHMNGT to glucosylate the aglycon [1] | rate of glucosylation compared with the cyanohydrins (sbHMNGT [3]) | relative Vmax with calculated standard deviations (sbHMNGT [3]; recombinant sbHMNGT) | substrate quality compared with p-hydroxymandelonitrile (sbHMNGT [4]) | Vmax (sbHMNGT [3]; recombinant sbHMNGT) |
| --- | --- | --- | --- | --- | --- | --- | --- |
| O=C1C[C@@H](c2ccc(O)cc2)Oc2cc(O)cc(O)c21 [naringenin] | □ | ▪ | – | – | – | – | – |
| CC(C)=CCC/C(C)=C\CO [nerol] | ▪ | ▪ | glucosylate | – | – | – | – |
| CC(C)=CCCC(C)CCO (centres unmarked) [p-citronellol] | ▪ | ▪ | glucosylate | – | – | – | – |
| O=Cc1ccc(O)cc1 [p-hydroxybenzaldehyde] | □ | ▪ | – | – | – | – | – |
| O=C(O)c1ccc(O)cc1 [p-hydroxybenzoic acid] | □ | ▪ | – | – | – | – | – |
| OCc1ccc(O)cc1 [p-hydroxybenzyl alcohol] | ▪ | ▪ | – | – | – | – | – |
| O=C(O)C(O)c1ccc(O)cc1 (centres unmarked) [p-hydroxymandelic acid] | □ | ▪ | – | – | – | – | – |
| N#CC(O)c1ccc(O)cc1 (centres unmarked) [p-hydroxymandelonitrile] | ▪ | ▪ | – | – | (100 ± 7.2%) | – | 1500 mol of product/mol of sbHMNGT/sec |
| O=c1c(O)c(-c2ccc(O)c(O)c2)oc2cc(O)cc(O)c12 [quercetin] | □ | ▪ | – | – | – | – | – |
| Oc1ccc(C=Cc2cc(O)cc(O)c2)cc1 [resveratrol] | □ | ▪ | – | – | – | – | – |
| O=C(O)c1ccccc1O [salicylic acid] | □ | ▪ | – | – | – | – | – |
| C[C@H]1CC[C@]2(NC1)O[C@H]1C[C@H]3[C@@H]4CC[C@H]5C[C@@H](O)CC[C@]5(C)[C@H]4CC[C@]3(C)[C@H]1[C@@H]2C [tomatidine] | □ | ▪ | – | – | – | – | – |
| CCC/C=C/CO [trans-2-hexen-1-ol] | ▪ | ▪ | – | – | – | – | – |
| COc1cc(C(=O)O)ccc1O [vanillic acid] | ▪ | ▪ | glucosylate | – | – | – | – |
| COc1cc(C=O)ccc1O [vanillin] | ▪ | ▪ | glucosylate | – | – | – | – |
